Read-outs that look alike come from different tables or passages of the source.
Tests used:
CYP2B6 = target: T1, CYP2B6 (Homo sapiens, UniProt P20813); experiment: in vitro; settings: microsomes, pH 7.4
T1 sequence (P20813 1-491): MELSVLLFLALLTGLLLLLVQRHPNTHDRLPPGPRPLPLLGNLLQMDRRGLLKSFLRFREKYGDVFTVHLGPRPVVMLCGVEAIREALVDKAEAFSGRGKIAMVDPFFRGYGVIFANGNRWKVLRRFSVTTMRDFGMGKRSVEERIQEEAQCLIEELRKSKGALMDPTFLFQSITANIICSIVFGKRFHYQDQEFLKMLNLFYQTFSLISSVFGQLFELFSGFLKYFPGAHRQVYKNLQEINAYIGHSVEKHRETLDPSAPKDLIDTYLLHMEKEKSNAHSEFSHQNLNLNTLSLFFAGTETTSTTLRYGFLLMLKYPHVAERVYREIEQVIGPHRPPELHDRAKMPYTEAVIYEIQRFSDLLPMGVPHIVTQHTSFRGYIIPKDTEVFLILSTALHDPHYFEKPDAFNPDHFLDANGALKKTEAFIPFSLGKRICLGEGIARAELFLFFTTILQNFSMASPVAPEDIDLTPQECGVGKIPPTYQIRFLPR

human hepatocytes = settings: 72 h, 100 μM
Description: Plateable and inducible cryopreserved human hepatocytes were thawed and isolated in human hepatocyte thawing medium. […] After attachment (4 hours), the medium was changed to fresh hepatocyte culture medium for overnight cell recovery. […] A positive control (100 μM chlorpromazine) was treated in parallel.

hrCYP3A4 = hrCYP3A4 (Homo sapiens, UniProt P08684); experiment: Formation of CYP probe metabolite by hrCYP3A4; type: in vitro ADME; settings: hrCYP3A4 vs Negative Control, QC criterion ≥2
CYP2C9 [1] = target: T2, CYP2C9 (Homo sapiens, UniProt P11712); experiment: Inhibition of CYP2C9 in human liver microsomes; settings: pH 7.4
hrCYP2C9 = hrCYP2C9 (Homo sapiens, UniProt P11712); settings: 20 min, 6 μM, pH 7.4
CYP2C9 [2] = target: T2, CYP2C9; settings: 4 μM, pH 7.4

T2 sequence (P11712 whole entry): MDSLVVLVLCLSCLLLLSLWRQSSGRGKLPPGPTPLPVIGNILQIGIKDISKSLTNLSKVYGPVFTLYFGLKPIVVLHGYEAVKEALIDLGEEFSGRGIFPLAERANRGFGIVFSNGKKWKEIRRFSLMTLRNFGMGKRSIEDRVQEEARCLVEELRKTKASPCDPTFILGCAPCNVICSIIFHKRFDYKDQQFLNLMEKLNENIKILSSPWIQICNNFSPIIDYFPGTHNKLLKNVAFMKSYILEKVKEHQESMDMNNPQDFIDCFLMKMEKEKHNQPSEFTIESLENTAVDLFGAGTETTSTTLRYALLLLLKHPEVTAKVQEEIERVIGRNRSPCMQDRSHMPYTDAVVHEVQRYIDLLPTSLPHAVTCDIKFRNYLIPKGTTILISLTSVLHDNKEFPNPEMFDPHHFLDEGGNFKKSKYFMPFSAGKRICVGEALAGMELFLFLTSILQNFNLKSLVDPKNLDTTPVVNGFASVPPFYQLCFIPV
Sequence of hrCYP2C9 (P11712 whole entry): as above
Sequence of hrCYP3A4 (P08684 whole entry): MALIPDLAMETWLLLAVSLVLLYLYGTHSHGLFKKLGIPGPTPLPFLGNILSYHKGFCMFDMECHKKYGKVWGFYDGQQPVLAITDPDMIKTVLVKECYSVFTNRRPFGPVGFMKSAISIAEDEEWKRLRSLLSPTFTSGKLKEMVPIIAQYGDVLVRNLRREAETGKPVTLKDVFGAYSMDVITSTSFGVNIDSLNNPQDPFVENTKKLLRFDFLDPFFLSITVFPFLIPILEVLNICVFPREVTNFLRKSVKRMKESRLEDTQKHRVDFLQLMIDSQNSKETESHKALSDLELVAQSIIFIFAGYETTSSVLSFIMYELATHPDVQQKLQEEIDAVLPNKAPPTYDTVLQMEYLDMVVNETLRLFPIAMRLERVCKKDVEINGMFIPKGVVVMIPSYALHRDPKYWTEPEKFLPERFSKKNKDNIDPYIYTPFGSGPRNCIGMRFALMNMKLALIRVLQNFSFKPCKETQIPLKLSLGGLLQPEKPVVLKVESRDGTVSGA

S=P(N1CC1)(N1CC1)N1CC1 [Thio-TEPA]
activity at 3.33 µM (CYP2B6): 66.9% | activity at 10 µM (CYP2B6): 44.1% | activity at 30 µM (CYP2B6): 26.7%

CN(C)CCCN1c2ccccc2Sc2ccc(Cl)cc21 [Chlorpromazine, chlorpromazine]
% MTS absorbance relative to vehicle control (human hepatocytes): 24.3% | Formazan absorbance, mean (human hepatocytes): 0.160

Cc1ncc2n1-c1ccc(Cl)cc1C(c1ccccc1F)=NC2 [Midazolam]
Formation Rate Ratio (hrCYP3A4; Midazolam (2 μM)): >>2

Nc1ccc(S(=O)(=O)Nc2ccnn2-c2ccccc2)cc1 [Sulfaphenazole]
activity at 3.33 µM (CYP2C9 [1]): 23.8% | activity at 10 µM (CYP2C9 [1]): 14.9%

O=C(O)Cc1ccccc1Nc1c(Cl)cccc1Cl [Diclofenac]
Formation Rate (hrCYP2C9): 0 pmol metabolite/min/mg Supersome protein | Measured Metabolite (hrCYP2C9): 0 µM | Formation Rate (hrCYP2C9; human): 845 pmol metabolite/min/mg Supersome protein | Measured Metabolite (hrCYP2C9; human): 1.56 µM | Formation Rate Ratio (CYP2C9 [2]): 7.7

C[C@]12CC[C@H]3[C@@H](CCC4=CC(=O)CC[C@@]43C)[C@@H]1CC[C@@H]2O [Testosterone]
Formation Rate Ratio (hrCYP3A4; Testosterone (50 μM)): >>2

From patent publication US20240139211A1, “METHODS AND COMPOSITIONS FOR TREATING AMYOTROPHIC LATERAL SCLEROSIS” (Amylyx Pharmaceuticals, Inc., priority 2022, published 2024)
